Assay results from patent US20110201648A1, “POLY-HETEROARYL DERIVATIVES FOR THE TREATMENT OF CANCER” (INSTITUT CURIE, priority 2008, published 2011).

melting point [°C] | SMILES
242 to 245 | c1ccc(-c2ncc(-c3cccc(-c4cnc(-c5ccccn5)o4)n3)o2)nc1 [compound 1, 2,6-Bis[2-(pyridin-2-yl)oxazol-5-yl]pyridine]
> 250 | c1cc(-c2cnc(-c3cccc(-c4cnco4)n3)o2)cc(-c2cnc(-c3cccc(-c4cnco4)n3)o2)c1 [compound 4, 1,3-Bis(2-(6-(oxazol-5-yl)pyridin-2-yl)oxazol-5-yl)benzene]
254 to 256 | c1cc(-c2cnco2)cc(-c2ncc(-c3cccc(-c4cnc(-c5cccc(-c6cnco6)c5)o4)n3)o2)c1 [compound 5, 2,6-Bis(2-(3-(oxazol-5-yl)phenyl)oxazol-5-yl)pyridine]
> 250 | c1cc(-c2cnc(-c3ccc(-c4cnco4)o3)o2)nc(-c2cnc(-c3ccc(-c4cnco4)o3)o2)c1 [compound 6, 2,6-Bis(2-(5-(oxazol-5-yl)furan-2-yl)oxazol-5-yl)pyridine]
